In ChEMBL document CHEMBL1201862, “PubChem BioAssay data set” (2004):
Calls of active or inactive are those of the source.

Experiments:
Format in all cases: functional
[1] = Luminescence Cell-Based Dose Confirmation HTS to Identify Activators of 5'UTR Stem-Loop Driven Alpha-Synuclein mRNA Translation in H4 Neuroglioblastoma Cells. [Related pubchem assays: 1829 (Project Summary), 1814 (Primary HTS)]
[2] = Luminescence Cell-Based Dose Response HTS to Identify Activators of Luciferase Translation or Activity in H4 […] Cells. [Related pubchem assays: 1829 (Project Summary), 1814 (Primary HTS)]
H4 = test: Luminescence Cell-Based Dose Response HTS to Identify Activators of 5'UTR Stem-Loop Driven Prion Protein mRNA Translation in H4 Neuroglioblastoma Cells. [Related pubchem assays: 1829 (Project Summary), 1814 (Primary HTS)]; conditions: Homo sapiens
[3] = microbe, parasite or virus in culture; conditions: Mycobacterium tuberculosis
[4] = target: 26S proteasome non-ATPase regulatory subunit 14 (Homo sapiens, UniProt O00487); test: inhibition of proteasome subunit RPN11 – biochemical, fluorescence polarization, uHTS hits, confirmation (AID 602368)
[5] = target: 72 kDa type IV collagenase (Homo sapiens, UniProt P08253); test: Dose Response validation of uHTS RPN11 inhibitor hits using a MMP-2 Fluorescence assay.
Prothrombin = Prothrombin (Bos taurus, UniProt P00735); test: thrombin inhibition, dose response, biochemical, fluorescence polarization, uHTS hits (AID 602369)
[6] = HeLa cell cytotoxicity, dose response, cytotoxicity control for MgcRacGAP inhibitor project (AID 624300)
[7] = target: T1, Rac GTPase-activating protein 1 (Homo sapiens, UniProt Q9H0H5); test: MgcRacGAP GTPase-activating activity inhibitors, confirmation, biochemical, ADP Hunter fluorescence, primary and confirmatory (AID 624330)
T1 sequence (Q9H0H5 whole entry): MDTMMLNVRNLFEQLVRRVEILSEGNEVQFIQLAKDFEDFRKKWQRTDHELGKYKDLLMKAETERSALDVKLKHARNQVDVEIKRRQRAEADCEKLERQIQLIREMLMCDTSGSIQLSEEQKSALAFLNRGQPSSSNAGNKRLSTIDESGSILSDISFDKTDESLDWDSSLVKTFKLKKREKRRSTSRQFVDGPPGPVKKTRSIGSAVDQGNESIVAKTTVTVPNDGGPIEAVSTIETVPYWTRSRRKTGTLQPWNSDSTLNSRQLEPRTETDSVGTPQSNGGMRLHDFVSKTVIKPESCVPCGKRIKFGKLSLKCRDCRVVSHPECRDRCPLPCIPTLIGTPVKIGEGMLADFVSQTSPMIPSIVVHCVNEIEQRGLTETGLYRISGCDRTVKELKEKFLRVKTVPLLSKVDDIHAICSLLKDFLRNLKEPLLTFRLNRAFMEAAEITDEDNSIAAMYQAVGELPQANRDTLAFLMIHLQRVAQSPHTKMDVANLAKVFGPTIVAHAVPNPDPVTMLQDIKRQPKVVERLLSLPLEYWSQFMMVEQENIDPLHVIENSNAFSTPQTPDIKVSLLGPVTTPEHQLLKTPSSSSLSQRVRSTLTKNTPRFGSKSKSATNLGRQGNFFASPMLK

[8] = growth suppression of PTEN-null colon cells, dose response, cell-based, HCT116 PTEN knockout (AID 1047);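 also: HCT116 colon tumor cells with PTEN knocked out; cells exposed to compound for 60 hours before readout; potency for loss of cell viability measured by luminescence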
[9] = growth suppression of beta-catenin-knockout colon cells, dose response, cell-based, HCT116, human colon tumor (AID 1045);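 also: HCT116 colon tumor cells with beta catenin knocked out; cells exposed to compound for 60 hours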
CHO-K1 = test: (§1) Counterscreen for antagonists of the orexin 1 receptor (OX1R; HCRTR1): Homogeneous time resolved fluorescence (HTRF)-based cell-based dose response assay to identify antagonists of the parental CHO-K1 cell line. [Related pubchem assays (depositor defined):AID434989, AID435008, AID463079, AID485270, AID492963, AID492964, AID492965, AID493232, AID504699, AID504701]; conditions: Cricetulus griseus
[10] = as §1, with “Fluorescence-based” for “Homogeneous time resolved fluorescence (HTRF)-based”, “cell-based high throughput” for “cell-based”, “CHO” for “CHO-K1”
[11] = target: T2, Orexin/Hypocretin receptor type 1 (Homo sapiens, UniProt O43613); test: Homogeneous Time Resolved Fluorescence (HTRF)-based cell-based high throughput dose response assay for antagonists of the orexin 1 receptor (OX1R; HCRTR1). [Related pubchem assays (depositor defined):AID434989, AID435008, AID463079, AID485270, AID492963, AID492964, AID492965, AID493232, AID504717, AID504718]
T2 sequence (O43613 whole entry): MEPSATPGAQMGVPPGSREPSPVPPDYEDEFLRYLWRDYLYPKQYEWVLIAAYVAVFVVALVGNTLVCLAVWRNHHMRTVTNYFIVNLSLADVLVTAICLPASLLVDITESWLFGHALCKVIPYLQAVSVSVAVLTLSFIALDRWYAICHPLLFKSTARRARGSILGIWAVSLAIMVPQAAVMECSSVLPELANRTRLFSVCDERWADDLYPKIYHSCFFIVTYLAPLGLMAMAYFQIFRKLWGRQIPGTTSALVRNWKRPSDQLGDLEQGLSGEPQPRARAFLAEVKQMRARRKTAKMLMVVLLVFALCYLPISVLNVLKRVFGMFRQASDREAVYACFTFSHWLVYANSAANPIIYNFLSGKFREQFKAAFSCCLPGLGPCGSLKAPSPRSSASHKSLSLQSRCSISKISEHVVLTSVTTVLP

[12] = target: T2, Orexin/Hypocretin receptor type 1; test: Fluorescence-based cell-based high throughput dose response assay for antagonists of the orexin 1 receptor (OX1R; HCRTR1). [Related pubchem assays (depositor defined):AID434989, AID435008, AID463079, AID485270, AID492963, AID492964, AID492965, AID493232, AID504717, AID504718]
Orexin receptor type 2 [13] = target: T3, Orexin receptor type 2 (Homo sapiens, UniProt O43614); test: Counterscreen assay for antagonists of the orexin 1 receptor (OX1R; HCRTR1): Fluorescence-based cell-based dose response assay for antagonists of the orexin 2 receptor (OX2R; HCRTR2), run by assay provider.
T3 sequence (O43614 whole entry): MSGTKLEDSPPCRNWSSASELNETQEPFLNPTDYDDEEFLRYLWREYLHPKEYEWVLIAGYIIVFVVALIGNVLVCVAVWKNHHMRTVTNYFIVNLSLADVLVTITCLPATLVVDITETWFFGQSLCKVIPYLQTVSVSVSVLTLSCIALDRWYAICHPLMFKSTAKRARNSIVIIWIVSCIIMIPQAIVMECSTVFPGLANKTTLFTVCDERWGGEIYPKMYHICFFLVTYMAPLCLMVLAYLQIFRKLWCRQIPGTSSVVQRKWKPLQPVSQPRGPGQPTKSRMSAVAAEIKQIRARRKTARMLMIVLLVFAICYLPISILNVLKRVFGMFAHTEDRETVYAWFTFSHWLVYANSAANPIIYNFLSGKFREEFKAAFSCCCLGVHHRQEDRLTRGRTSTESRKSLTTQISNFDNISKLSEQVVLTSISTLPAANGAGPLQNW

Orexin receptor type 2 [14] = target: T3, Orexin receptor type 2; test: Counterscreen assay for antagonists of the orexin 1 receptor (OX1R; HCRTR1): Homogeneous Time Resolved Fluorescence (HTRF)-based cell-based dose response assay for antagonists of the orexin 2 receptor (OX2R; HCRTR2), run by assay provider.

26S proteasome non-ATPase regulatory subunit 14, sequence (O00487 whole entry): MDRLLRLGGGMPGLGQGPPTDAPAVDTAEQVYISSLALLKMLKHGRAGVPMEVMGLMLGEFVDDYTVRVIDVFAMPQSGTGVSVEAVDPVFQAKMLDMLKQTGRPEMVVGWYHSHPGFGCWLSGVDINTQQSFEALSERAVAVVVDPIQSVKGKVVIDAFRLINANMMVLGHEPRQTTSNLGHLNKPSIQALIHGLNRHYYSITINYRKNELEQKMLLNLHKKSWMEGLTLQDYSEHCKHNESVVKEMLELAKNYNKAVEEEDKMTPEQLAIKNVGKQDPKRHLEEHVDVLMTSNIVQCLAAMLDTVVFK
72 kDa type IV collagenase, sequence (P08253 whole entry): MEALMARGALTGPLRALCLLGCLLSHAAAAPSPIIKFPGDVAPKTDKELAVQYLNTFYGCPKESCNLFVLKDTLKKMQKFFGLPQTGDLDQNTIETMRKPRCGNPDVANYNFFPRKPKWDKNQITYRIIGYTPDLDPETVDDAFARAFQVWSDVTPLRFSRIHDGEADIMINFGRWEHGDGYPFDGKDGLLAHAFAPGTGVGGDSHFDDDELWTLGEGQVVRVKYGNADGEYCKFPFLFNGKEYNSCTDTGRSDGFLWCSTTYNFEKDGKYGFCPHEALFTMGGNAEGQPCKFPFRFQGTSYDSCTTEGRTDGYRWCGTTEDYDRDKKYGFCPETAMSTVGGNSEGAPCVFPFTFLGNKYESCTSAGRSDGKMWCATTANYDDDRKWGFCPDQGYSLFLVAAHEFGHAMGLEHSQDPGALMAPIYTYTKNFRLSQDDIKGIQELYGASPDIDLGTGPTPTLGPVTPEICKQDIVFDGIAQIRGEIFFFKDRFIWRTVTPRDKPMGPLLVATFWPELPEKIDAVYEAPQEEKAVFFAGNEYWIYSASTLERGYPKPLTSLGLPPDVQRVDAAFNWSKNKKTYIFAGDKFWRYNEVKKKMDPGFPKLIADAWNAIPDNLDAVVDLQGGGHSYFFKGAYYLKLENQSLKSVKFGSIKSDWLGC

Row | Structure (SMILES) | EC50 [1] | EC50 [2] | EC50 (H4) | CC50 [3] | IC50 [4] | IC50 [5] | IC50 (Prothrombin) | CC50 [6] | IC50 [7] | EC50 [8] | EC50 [9] | IC50 (CHO-K1) | IC50 [10] | IC50 [11] | IC50 [12] | IC50 (Orexin receptor type 2 [13]) | IC50 (Orexin receptor type 2 [14])
1 | C(=N\NC1=Nc2cccc3cccc1c23)/c1cccnc1 | 0.128 µM (active) | 2.39 µM (active) | > 120 µM (not active) | > 40 µM (active) | 11.9 µM (active) | > 100 µM (inactive) | 14 µM (active) | – | – | – | – | – | – | – | – | – | –
2 | Cc1c(C(=O)N/N=C/c2ccc(O)c(Br)c2)sc(N)c1C#N | – | – | – | – | 49.8 µM (active) | > 100 µM (inactive) | 48.9 µM (active) | 78.2 µM (active) | 97.3 µM (active) | – | – | – | – | – | – | – | –
3 | CC(NS(=O)(=O)c1ccc(OCC(=O)Nc2cccc([N+](=O)[O-])c2)cc1)c1ccccc1 (stereo unspecified) | – | – | – | – | – | – | – | – | – | 18.4 µM (active) | 18.2 µM (active) | > 66.2 µM (inactive) | > 49.8 µM (inactive) | 0.688 µM (active) | 13.6 µM (inactive) | > 88.8 µM (inactive) | > 50 µM (inactive)
4 | CCN(C(=O)CO/N=C/c1ccc(OC)cc1OC)c1c(N)n(Cc2ccccc2)c(=O)[nH]c1=O | – | – | – | – | – | – | – | – | – | – | – | > 66.2 µM (inactive) | > 49.7 µM (inactive) | 0.317 µM (active) | 5.93 µM (active) | 29 µM (inactive) | 1.77 µM (active)
